The source of these data is patent publication US6638523B1, “Method of treating ulcers” (Nagase & Company, Ltd., priority 1999, dated 2003).

Broadly, the ED50 is the midpoint of the dose-response relation.

In experiment [1] the test system is ulcers developed in the stomach. The experiment in a line: Ethanol-induced gastric ulcer in rats. Type of experiment: in vivo, Wistar male rats. Conditions: for ED50: Rattus norvegicus, oral administration 30 min before 1 ml ethanol (99.5%), total ulcer length after 1 h, read-out: ED50 (anti-ulcer action); for anti-ulcer action: oral, carnosic acid 1, 5, 25 mg/kg, carnosol 2.5, 10, 25 mg/kg, ethanol ulcer, FIG. 1 and 2. On the procedure: To Wistar male rats (5 rats per group) of 180-200 g body weight fasted for 24 hours before the start of a test, carnosic acid obtained in Example 1 was orally administered in dose levels of 1, 5 and 25 mg per kg body weight, after suspending it in water. Similarly, carnosol obtained in Example 1 was orally administered in dose levels of 2.5, 10 and 25 mg per kg body weight, after suspending it in water. After 30 minutes of the administration, 1 ml of ethanol (99.5%) was orally administered to each rat. After one hour of the ethanol administration, laparotomy was carried out and the lengths of all ulcers developed in the stomach were measured and added up. Similar measurements were carried out on the rats of the control group which received ethanol without receiving the above compounds and the result obtained was compared with the above results.

For experiment [2] the test system is unchanged. Conditions: well known anti-ulcer compound, comparison value; cited from earlier work.

For `CC(C)c1cc2c(c(O)c1O)[C@@]1(C(=O)O)CCCC(C)(C)[C@@H]1CC2` [carnosic acid], in experiment [1], the ED50 is 3.1 mg/kg and the anti-ulcer action entry is on record as “potent anti-ulcer action”.

For `CC(C)c1cc2c(c(O)c1O)[C@@]13CCCC(C)(C)[C@@H]1C[C@@H]2OC3=O` [carnosol], in experiment [1], the ED50 was 9.6 mg/kg and the anti-ulcer action result is on record as “potent anti-ulcer action”.

On to `NC(N)=Nc1nc(CSCCN/C=N/S(=O)(=O)c2ccc(Br)cc2)cs1` [ebrotidine], for which, in experiment [2], the “ED50 (anti-ulcer action), comparison compound” value is listed as 26.54 mg/kg.
